For one data set, the target named is T1, CDK4 (Homo sapiens, UniProt P11802).
T1 construct: CDK4 and CDK6 were immunoprecipitated from isogenic drug sensitive (MCF7 parental cells with low CDK6); endogenous in cells; host or cells: MCF-7 parental and MCF-7 FAT1 CRISPR knockout (CDK6-high) cells
The data set is described as follows: Immunoblotting of CDK4 degradation in cells. Format: cell-based. On the procedure: (§1) Cell lysates were collected in RIPA buffer (Thermo Fisher Scientific) supplemented with protease and phosphatase inhibitors (Pierce). Protein concentration was quantified by using the BCA kit (Fisher Scientific). […] of protein lysates were loaded onto 4-12% SDS-PAGE gels (Invitrogen) for electrophoresis and transferred onto nitrocellular membranes. Blots were blocked with Intercept™ (TBS) Blocking Buffer (LI-COR Bioscience #927-60001) and incubated with primary antibody at 4° C. overnight. Secondary antibodies conjugated with fluorescence (LI-COR Bioscience #926-68071 and #926-32210) were incubated for 1 h at room temperature and blots were scanned by Odyssey Clx Imaging System from LI-COR Bioscience.
For orientation: Immunoblotting shows a protein as a band on a membrane.

Another data set has as its system phosphorylation of Rb. The data set is described as follows: Immunoblotting of Rb phosphorylation in cells. Format: cell-based, human. Particulars: FAT1 loss / CDK6-high CDK4/6i-resistant MCF7 cells. The method, then:
as §1

The next data set has as its target CDK6 (Homo sapiens, UniProt Q00534). The data set is described as follows: Immunoblotting of CDK6 degradation in cells. Format: cell-based. Also noted: MCF7 cells that lost FAT1 expression and with high CDK6 expression; endogenous in cells; host or cells: MCF-7 FAT1 loss cells (also MCF-7 parental). The method, then:
as §1

The test system of a further data set is MOLT4 cells. In words: Global quantitative mass spectrometry proteomics. The note with it: 250 nM, 5 h. Format: cell-based, human. On the procedure: Molt4 cells were treated with 250 nM of compounds BSJ-05-017 or BSJ-03-096 (singlicate) or DMSO control (biological triplicate) for 5 hours. Cells were harvested by centrifugation and prepared for mass spectrometry as described previously (28). Data were collected as reported (28). LC-MS data were analyzed using Proteome Discoverer 2.4 (Thermo Fisher Scientific), as previously described (28). Reporter ion intensities were normalized and scaled using in-house scripts in the R framework (63). Statistical analysis was carried out using the limma package within the R framework (64).

The next data set can be described thus: Pharmacokinetic study. Format: in vivo, C57BL/6 male mice. The method, then:
Pharmacokinetic study. C57BL/6 male mice were dosed with BSJ-05-017 solution formulation (i.p., 5/95 DMSO/10% captisol, dose 25 mg/kg) and BSJ-03-096 solution formulation (p.o., 5/95 DMSO/10%, dose 10 mg/kg). Blood samples were collected at 0.08, 0.25, 0.5, 1, 2, 4, 6, 8 and 24 hr. The blood samples were collected from sets of three mice at each time point in microcentrifuge tubes containing K2EDTA as an anticoagulant. Plasma samples were separated by centrifugation and stored below −70° C. until bioanalysis. All samples were processed for analysis by precipitation using acetonitrile and analyzed with a partially validated LC/MS/MS method (LLOQ −1.22 ng/mL for IV and PO, LLOQ −5.02 ng/mL for IP). Pharmacokinetic parameters were calculated using the noncompartmental analysis tool of WinNonlin Enterprise software (Version 6.3).

The subject of data set [1] is CDK6-overexpressing xenografts. The data set is described as follows: Efficacy study, cell-derived xenograft. Format: in vivo, NSG mice. Particulars: 25-35 days. The method, then: (§2) Efficacy study. NOD.Cg-Prkdc Il2rg<tm1Wjl>/SzJ (NSG) mice were obtained from the Jackson Laboratory (Stock #: 005557). Each mouse was injected with MCF7 parental, CDK6-ovexpressing or PTEN loss cells subcutaneously 1 week after the implantation of estradiol pellets (25 mg). […] Tumor volumes were recorded every 3-4 days. Mice were sacrificed if tumors reached 1000 mm^3 or at the end of the experiment. Tumors were collected and processed as described above.

The subject of data set [2] is MCF7 parental cell-derived xenografts. In words: Efficacy study, cell-derived xenograft. Format: in vivo, NSG mice. The note with it: ribociclib 25 mg/kg p.o., BSJ-05-017 50 mg/kg i.p., BSJ-03-096 50 mg/kg p.o., 25-35 days. On the procedure: as §2
The test system of data set [3] is shPTEN (PTEN loss) xenografts. In words: Efficacy study, cell-derived xenograft. Format: in vivo, NSG mice. Particulars: 25-35 days. On the procedure:
as §2

The subject of data set [4] is patient-derived xenograft models. In words: Patient-derived xenograft tumor growth. Format: in vivo, mice. The note with it: two patient-derived xenograft models; ribociclib at clinical equivalent dose. In general terms: Xenograft models place foreign cells or tissue in a host animal.
The subject of data set [5] is MCF-7 CDK6-high cells (FAT1 loss). The data set is described as follows: Cell viability assay (Resazurin). Format: cell-based, human. Particulars: day 7. On the procedure:
(§3) Cell viability was measured by Resazurin (R&D Systems, Minneapolis, MN, USA) as described previously (51). Briefly, 1,500 cells were seeded in a 96-well plate and allowed to recover overnight. Cells were treated with drugs at day 0. Resazurin was added to the cells 4 hours prior to the measurements on day 3, day 5 and day 7. Fluorescent intensity was measured using a microplate reader (SpectraMax M5, Molecular Devices, Sunnyvale, CA, USA). IC50 was calculated by GraphPad Prism 7.0 using a sigmoidal regression model.

A further data set has as its system MCF-7 parental cells. The data set is described as follows: Cell viability assay (Resazurin). Format: cell-based, human. The note with it: day 7. The method, then:
as §3
A general note: Alamar Blue is a resazurin reagent that responds to reducing activity.

The mark [6] stands for this setting: FAT1 loss / CDK6-high CDK4/6i-resistant MCF7 cells, 24 h treatment.
Setting [7] is: MCF7 cells with overexpression of CDK6.
Setting [8] is: BSJ-05-017 50 mg/kg i.p., BSJ-03-096 50 mg/kg p.o.

The source of these data is US20250144099A1, “INK4 TUMOR SUPPRESSOR PROTEINS MEDIATE RESISTANCE TO CDK4/6 KINASE INHIBITORS” (MEMORIAL SLOAN-KETTERING CANCER CENTER, priority 2021, published 2025).

For orientation: Cmax means the maximum level reached in the sampled fluid or tissue.

Entries after “also recorded” stand apart in the source; their conditions may differ.

CDK6, sequence (Q00534 whole entry): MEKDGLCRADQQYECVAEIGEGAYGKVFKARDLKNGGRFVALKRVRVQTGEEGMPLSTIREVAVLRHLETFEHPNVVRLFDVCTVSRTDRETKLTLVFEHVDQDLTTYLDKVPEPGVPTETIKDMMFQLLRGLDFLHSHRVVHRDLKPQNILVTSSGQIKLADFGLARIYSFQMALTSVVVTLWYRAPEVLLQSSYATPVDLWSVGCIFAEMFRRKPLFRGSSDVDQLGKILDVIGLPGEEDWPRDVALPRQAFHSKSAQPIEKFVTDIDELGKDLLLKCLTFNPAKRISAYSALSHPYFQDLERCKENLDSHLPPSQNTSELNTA
T1 sequence (P11802 whole entry): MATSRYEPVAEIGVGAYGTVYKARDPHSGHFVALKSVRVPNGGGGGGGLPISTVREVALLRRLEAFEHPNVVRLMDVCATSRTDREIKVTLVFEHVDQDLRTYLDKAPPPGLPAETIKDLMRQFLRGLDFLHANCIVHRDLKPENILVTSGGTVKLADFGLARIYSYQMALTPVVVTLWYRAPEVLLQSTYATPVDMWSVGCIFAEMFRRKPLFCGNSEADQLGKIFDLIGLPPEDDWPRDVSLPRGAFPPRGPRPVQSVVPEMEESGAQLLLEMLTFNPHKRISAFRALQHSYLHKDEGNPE
T1 sequence (P24385 whole entry partner): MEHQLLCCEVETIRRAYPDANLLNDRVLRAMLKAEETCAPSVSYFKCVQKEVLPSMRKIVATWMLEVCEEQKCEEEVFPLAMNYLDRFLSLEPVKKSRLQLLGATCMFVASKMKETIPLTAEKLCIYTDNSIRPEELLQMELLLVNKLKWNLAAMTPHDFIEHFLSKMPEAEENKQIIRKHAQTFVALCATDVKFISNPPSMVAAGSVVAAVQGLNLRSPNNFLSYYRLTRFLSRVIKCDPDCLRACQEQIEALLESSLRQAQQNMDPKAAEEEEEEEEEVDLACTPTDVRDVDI

In the case of `CC(=O)c1c(C)c2cnc(Nc3ccc(N4CCN(CCC5CC(CNc6cccc7c6C(=O)N(C6CCC(=O)NC6=O)C7=O)C5)CC4)cn3)nc2n(C2CCCC2)c1=O` (stereo not drawn) [AM-01-125, 4-(((3-(2-(4-(6-((6-acetyl-8-cyclopentyl-5-methyl-7-oxo-7,8-dihydropyrido[2,3-d]pyrimidin-2-yl)amino)pyridin-3-yl)piperazin-1-yl)ethyl)cyclobutyl)methyl)amino)-2-(2,6-dioxopiperidin-3-yl)isoindoline-1,3-dione], the “degradation of CDK4” value at CDK4 (setting [6]) was “effectively degrade CDK4/CDK6”. In addition, the “inhibition of phosphorylation of Rb (and downstream E2F1/cyclin A2)” value (from here on “inhibition … (and downstream E2F1/cyclin A2)”) in the data set on phosphorylation of Rb was “inhibit phosphorylation of Rb”. Further, the “degradation of CDK6” value on CDK6 (setting [6]) is reported as “effectively degrade CDK4/CDK6”.
As to `CC(=O)c1c(C)c2cnc(Nc3ccc(N4CCN(CCC5CCN(c6ccc7c(c6)C(=O)N(C6CCC(=O)NC6=O)C7=O)CC5)CC4)cn3)nc2n(C2CCCC2)c1=O` (stereo not drawn) [AM-01-269, 5-(4-(2-(4-(6-((6-acetyl-8-cyclopentyl-5-methyl-7-oxo-7,8-dihydropyrido[2,3-d]pyrimidin-2-yl)amino)pyridin-3-yl)piperazin-1-yl)ethyl)piperidin-1-yl)-2-(2,6-dioxopiperidin-3-yl)isoindoline-1,3-dione], on CDK4 (setting [6]), the “degradation of CDK4” value is given as “effective in degrading CDK4/6”. In addition, the “inhibition … (and downstream E2F1/cyclin A2)” value in the data set on phosphorylation of Rb is given as “inhibiting phosphorylation of Rb”. For the same molecule, at CDK6 (setting [6]), the “degradation of CDK6” value is recorded as “effective in degrading CDK4/6”.
Consider `CC(=O)c1c(C)c2cnc(Nc3ccc(N4CCN(CCC5CCCCN5c5ccc6c(c5)C(=O)N(C5CCC(=O)NC5=O)C6=O)CC4)cn3)nc2n(C2CCCC2)c1=O` (stereo not drawn) [AM-01-275, 6-(2-(2-(4-(6-((6-acetyl-8-cyclopentyl-5-methyl-7-oxo-7,8-dihydropyrido[2,3-d]pyrimidin-2-yl)amino)pyridin-3-yl)piperazin-1-yl)ethyl)piperidin-1-yl)-2-(2,6-dioxopiperidin-3-yl)-3a,4-dihydro-1H-isoindole-1,3(2H)-dione], for which, on CDK4 (setting [6]), the “degradation of CDK4” value is listed as “effective in degrading CDK4/6”. Besides, the “inhibition … (and downstream E2F1/cyclin A2)” value in the data set with phosphorylation of Rb is listed as “inhibiting phosphorylation of Rb”. On CDK6 (setting [6]), the “degradation of CDK6” value is “effective in degrading CDK4/6”.
For the molecule `CC(=O)c1c(C)c2cnc(Nc3ccc(N4CCN(CC5CCN(c6ccc7c(c6)C(=O)N(C6CCC(=O)NC6=O)C7=O)CC5)CC4)cn3)nc2n(C2CCCC2)c1=O` (stereo not drawn) [BSJ-03-096, 5-(4-((4-(6-((6-acetyl-8-cyclopentyl-5-methyl-7-oxo-7,8-dihydropyrido[2,3-d]pyrimidin-2-yl)amino)pyridin-3-yl)piperazin-1-yl)methyl)piperidin-1-yl)-2-(2,6-dioxopiperidin-3-yl)isoindoline-1,3-dione], the “degradation of CDK4” value is “most significant degradation of both CDK4 and CDK6; also recorded: effective in degrading both CDK4 and CDK6; also recorded: high potency in degrading CDK4 and CDK6” at CDK4 (setting [6]); “effectively degrade CDK4 and CDK6” on CDK4 (setting [7]). Further, the “inhibition … (and downstream E2F1/cyclin A2)” value in the data set on phosphorylation of Rb is “efficiently inhibit the phosphorylation of Rb protein; also recorded: effective inhibition of the phosphorylation of Rb”. Besides, the “selectivity in global proteomics” value with MOLT4 cells is “highly selective for CDK4 and CDK6”. The same molecule came in with a maximum concentration (Cmax) in the data set “Pharmacokinetic study” (male, C57BL/6, mouse, plasma, po, single dose 10 mg/kg p.o.) of 900 nM. Also, the concentration at 24 h in the data set “Pharmacokinetic study” (male, C57BL/6, mouse, plasma, po, single dose 10 mg/kg p.o., read-out: plasma concentration at 24h post dosing) was around 100 nM. Besides, the metabolic stability entry in the data set “Pharmacokinetic study” (single dose in mice, i.p. or p.o.) is reported as “good metabolic stability”. Moreover, the “durable tumor inhibition (percent)” value in data set [1] (setting [8]) was −68.9%; in data set [3] (setting [8]), −54.9%. Besides, the tumor response result in data set [2] was “sensitive”. Moreover, in data set [4], the “inhibition of tumor growth” value is on record as “effective in inhibiting tumor growth”. Further, the “degradation of CDK6” value on CDK6 (setting [6]) was “most significant degradation of both CDK4 and CDK6; also recorded: effective in degrading both CDK4 and CDK6; also recorded: high potency in degrading CDK4 and CDK6”; on CDK6 (setting [7]), “effectively degrade CDK4 and CDK6”.
With `CC(=O)c1c(C)c2cnc(Nc3ccc(N4CCN(CCOCCOCCOCCNC(=O)COc5cccc6c5C(=O)N(C5CCC(=O)NC5=O)C6=O)CC4)cn3)nc2n(C2CCCC2)c1=O` (stereo not drawn) [BSJ-03-123, N-(2-(2-(2-(2-(4-(6-((6-acetyl-8-cyclopentyl-5-methyl-7-oxo-7,8-dihydropyrido[2,3-d]pyrimidin-2-yl)amino)pyridin-3-yl)piperazin-1-yl)ethoxy)ethoxy)ethoxy)ethyl)-2-((2-(2,6-dioxopiperidin-3-yl)-1,3-dioxoisoindolin-4-yl)oxy)acetamide, reference compound], on CDK4 (setting [6]), the “degradation of CDK4” value is “not CDK4; also recorded: no effect on CDK4”. Moreover, the “inhibition of cell growth” value (in [5]; in the data set with MCF-7 parental cells) was “does not effectively inhibit the growth” throughout. The “degradation of CDK6” value at CDK6 (setting [6]) is on record as “dose dependent targeting of CDK6; also recorded: effective CDK6 degradation; also recorded: dose-dependent degradation of CDK6”.
Take `CC(=O)c1c(C)c2cnc(Nc3ccc(N4CCN(CCC5CCN(c6cccc7c6C(=O)N(C6CCC(=O)NC6=O)C7=O)CC5)CC4)cn3)nc2n(C2CCCC2)c1=O` (stereo not drawn) [MS-01-303, 4-(4-(2-(4-(6-((6-acetyl-8-cyclopentyl-5-methyl-7-oxo-7,8-dihydropyrido[2,3-d]pyrimidin-2-yl)amino)pyridin-3-yl)piperazin-1-yl)ethyl)piperidin-1-yl)-2-(2,6-dioxopiperidin-3-yl)isoindoline-1,3-dione]: the “degradation of CDK4” value at CDK4 (setting [6]) is given as “effectively degrade CDK4/CDK6”. Also, the “inhibition … (and downstream E2F1/cyclin A2)” value in the data set with phosphorylation of Rb is “inhibit phosphorylation of Rb”. Further, the “degradation of CDK6” value on CDK6 (setting [6]) was “effectively degrade CDK4/CDK6”.
On to `CC(=O)c1c(C)c2cnc(Nc3ccc(N4CCN(CCCC5CCN(c6cccc7c6C(=O)N(C6CCC(=O)NC6=O)C7=O)CC5)CC4)cn3)nc2n(C2CCCC2)c1=O` (stereo not drawn) [MS-02-24], for which the “degradation of CDK4” value on CDK4 (setting [6]) is given as “effective in degrading CDK4/6”. Further, the “inhibition … (and downstream E2F1/cyclin A2)” value in the data set with phosphorylation of Rb is “inhibiting phosphorylation of Rb”. Moreover, on CDK6 (setting [6]), the “degradation of CDK6” value is “effective in degrading CDK4/6”.
Consider `CN(C)C(=O)c1cc2cnc(Nc3ccc(N4CCNCC4)cn3)nc2n1C1CCCC1` [ribociclib, reference compound], for which the tumor response result was “tumor outgrowth after initial response” in data set [1] (ribociclib 25 mg/kg p.o.), “sensitive” in data set [2] and “tumor outgrowth after initial response” in [3] (ribociclib 25 mg/kg p.o.). The “inhibition of tumor growth” value in data set [4] was “does not inhibit their growth effectively”.
